How the values were obtained:
[1] = molecular target: T1, thrombin (Homo sapiens, UniProt P00734); experiment: Thrombin time (blood coagulation inhibitory activity); type: biochemical
T1 construct: 50 μl of 0.5 U thrombin (Sigma Co., USA); purchased Sigma Co., USA
Description: (§1) An antithrombotic activity was measured for the three types of jellies prepared in Example 3, and the results are shown in Table 5. At this time, the blood coagulation inhibitory activity evaluation method was in accordance with the previously reported method (Sohn et al., 2004. Kor. J. Pharmacogn 35. 52-61; Kwon et al., 2004. J. Life Science, 14. 509-513; Ryu et al. 2010. J. Life Science, 20. 922-928). Experiments were conducted to measure thrombin time, prothrombin time, and activated Partial Thromboplastin Time (aPTT). For plasma, commercially available control plasma (MD Pacific Technology Co., Ltd, Huayuan Industrial Area, China) was used. The thrombin time, prothrombin time, and aPTT measurements were performed as follows.
At a temperature of 37° C., 50 μl of 0.5 U thrombin (Sigma Co., USA), 50 μl of 20 mM CaCl2), and 10 μl of sample extracts of various concentrations were mixed in a tube of Amelung coagulometer KC-1A (Japan), and reacted for 2 minutes. Thereafter, 100 μl of plasma was added thereto. Afterward, the time until the plasma coagulated was measured. Aspirin (Sigma Co., USA) was used as a control. […] The thrombin inhibition effect was expressed as an average value of experiments repeated more than three times. A thrombin inhibitory activity was expressed as the coagulation time upon sample addition divided by the coagulation time upon the solvent control addition.

[2] = system: prothrombin; experiment: Prothrombin time (blood coagulation inhibitory activity); type: biochemical
Description: as §1
At a temperature of 37° C., 70 μl of standard plasma (MD Pacific Co., China) and 10 μl of sample solutions of various concentrations were added into the tube of Amelung coagulometer KC-1A (Japan) and heated for 3 minutes. Thereafter, 130 μl of PT reagent was added thereto. Afterward, the time until the plasma coagulated was expressed as an average value of the experiments repeated three times. Aspirin (Sigma Co., USA) was used as a control. […] A prothrombin inhibitory activity was expressed as the coagulation time upon sample addition divided by the coagulation time upon the solvent control addition.

[3] = system: blood coagulation factor; experiment: Activated Partial Thromboplastin Time (aPTT); type: biochemical
Description: as §1
Activated Partial Thromboplastin Time (aPTT)
At a temperature of 37° C., 100 μl of plasma and 10 μl of sample extracts of various concentrations were added to the tube of Amelung coagulometer KC-1A (Japan) and heated for 3 minutes. Thereafter, 50 μl of aPTT reagent (Sigma, ALEXIN™) was added thereto. […] Afterward, the time until the plasma coagulated was measured. […] The results of aPTT were expressed as an average value of three repeated experiments. A blood coagulation factor inhibitory activity was expressed as the aPTT upon sample addition divided by the aPTT upon the solvent control addition.

[4] = Nitrite scavenging ability (Griess reagent); details: 0.2 mg/ml; nitrite solution 1 mM, pH 1.2, 37° C., 1 hour
Description: To measure the nitrite scavenging ability, a sample solution was added to the nitrite solution (1 mM), and 0.1 N HCl was further added thereto to adjust the pH of the mixture to 1.2. Thereafter, the mixture was reacted at a temperature of 37° C. for 1 hour, and then Griess reagent (Sigma Co., USA) was added, and the resulting solution was mixed. After leaving the resulting solution at room temperature for 15 minutes, the amount of remaining nitrite was measured by measuring absorbance at a wavelength of 520 nm. The nitrite scavenging ability (%) was calculated using the following equation.

[5] = compared to the untreated group, aspirin at 1.5 mg/ml

Blood coagulation inhibitory activity, Thrombin time ([1]; coagulation time upon sample addition / upon DMSO addition, control plasma, 37° C., aspirin 1.5 mg/ml, concentration not given for jellies) | extension of thrombin time [1, 5] | SMILES | Blood coagulation inhibitory activity, Prothrombin time ([2]; coagulation time upon sample addition / upon DMSO addition, standard plasma, 37° C., aspirin 1.5 mg/ml, concentration not given for jellies) | extension of prothrombin time [2, 5] | Blood coagulation inhibitory activity, aPTT ([3]; aPTT upon sample addition / upon DMSO addition, plasma, 37° C., aspirin 1.5 mg/ml, concentration not given for jellies) | extension of aPTT [3, 5] | Nitrite scavenging ability [4]
1.26 ± 0.00 | 1.26 times | CC(=O)Oc1ccccc1C(=O)O [Aspirin] | 1.30 ± 0.02 | 1.30 times | 1.33 ± 0.02 | 1.33 times | 
 |  | O=C1O[C@H]([C@@H](O)CO)C(O)=C1O [Vitamin C] |  |  |  |  | 62.5 ± 0.1%

— patent US20250186532A1, “SHINE MUSCAT JELLY HAVING HIGH SENSORY APPEAL AND EXCELLENT ANTIOXIDANT AND ANTITHROMBOTIC ACTIVITIES, AND METHOD OF PREPARING SAME” (Andong National University Industry-Academic Cooperation …, priority 2023, published 2025)
